# Earlier results, collected in patent publication US20110064711A1, “COMPOSITIONS CONTAINING COENZYME Q-10 AND AN ANTIOXIDANT” (priority 2009, published 2011).
# Details: exposure to ambient air; general statement, time not given
smiles,measurement,value
COc1c(O)c(C)c(C/C=C(\C)CC/C=C(\C)CC/C=C(\C)CC/C=C(\C)CC/C=C(\C)CC/C=C(\C)CC/C=C(\C)CC/C=C(\C)CC/C=C(\C)CCC=C(C)C)c(O)c1OC [Commercial reduced CoQ10 powder],reduced form of CoQ10 on a weight basis after exposure to air,below 20%
